Reference: US12478585B2, “Micelles and vesicles for the delivery of glycopeptides” (ARIZONA BOARD OF REGENTS ON BEHALF OF THE UNIVERSITY OF …, priority 2017, dated 2025)

Key:
[1] = CMC determination by DOSY NMR (diffusion coefficients vs inverse concentration, linear regression); format: physicochemical; conditions: for CMC: DOSY, in D2O, Table 1; for CMC, DOSY (Diffusion Coefficients): Table 2
Method: Sample solutions were transferred (500 μL) to 5 mm NMR tubes for automated analysis via Bruker 400 MHz spectrometer. Gradient pulse strengths and delays were standardized for all experiments, with a pulse interval (δ) of 3 ms and diffusion interval (Δ) of 200 ms; these values were experimentally determined to ensure the arrayed diffusion data would provide a reasonable curve for accurate Dc determination.
Stacked data arrays were processed in MestReNova® by setting the appropriate value “k” standardized to known self-diffusion coefficients of the bulk solvent, then applying Bayesian DOSY transform to yield pseudo-2D spectra containing the ^1H NMR spectrum vs diffusion coefficients. Averaged values for samples at each concentration were plotted vs. the inverse concentration. Data points from monomeric and aggregated samples were identified by the first signs of decreasing Dc, and linear regression of the two sets provided an intercept estimated as the CMC. Slope and intercept errors were used to calculate error.
Linear regression of the data sets, i.e. monomers and aggregates, provided an intercept estimated as the CMC. […] CMC's decreased approximately a full order of magnitude when the hydrocarbon chain length increased by two methylene groups as described previously.

[2] = CMC by surface tensiometry; format: physicochemical; conditions: Table 2
From the text: CMC measurements from DOSY experiments agree with previously reported surface tensiometry data for melibiosides and cellobiosides, as well as literature values for the glucosides.

[3] = literature; cited from earlier work
[4] = Table 2, marked (lit); cited from earlier work
[5] = Aggregate radius and aggregation number (Nagg) from DOSY diffusion data (Stokes-Einstein, spherical model); format: physicochemical; conditions: D2O
Method: The Stokes-Einstein equation provided estimated aggregate radii from the recorded diffusion coefficients. Further, Tanford's equations: lc≤lmax≈(0.154+0.1265n)nm and v≈(27.4+26.9n)×[…] nm^3 were used to calculate the critical volume (v) and maximum length (lmax) of the hydrocarbon tail based on the length of the lipid tail, n. Energy-minimized structures in MOE® were measured to find critical length (lc) values.
The average micelle radius (r) was calculated for each concentration of the surfactants (FIG. 9). Using molecular volume (V) calculations from MOE®, a spherical model was used to estimate aggregation numbers (Nagg) for each sample (FIG. 10). In general, these values correspond well to values determined by fluorescence quenching experiments. For samples such as decyl glucoside and dodecyl melibioside, Nagg values greater than 200 are representative of both the fact that larger aggregates will form at high concentrations, and that D2O (and 0.9% NaCl in H2O) induces the formation of higher order structures. Dodecyl melibioside is an example, where previous fluorescence quenching experiments show Nagg averages at 65 in concentrations over 20 mM. For these DOSY experiments Nagg is above 300 at only 5 mM, […], and more likely describing rod-like aggregates.

[6] = Solubility/precipitation behaviour in D2O, 0.9% NaCl and buffers
Method: NMR samples were prepared in triplicate by diluting concentrated stock solutions of the alkyl glycoside or SDS in D2O to concentrations below the known or estimated CMC values. For highly concentrated and/or insoluble samples, vials were warmed in an oil bath until the solution formed and was clear and cooled to RT. Precipitated samples were measured both before and after filtration of the precipitate to observe diffusion behavior. Solutions of the three glucosides were also prepared from 100 mM stock solutions of the glycolipid in dry CHCl3, with addition of D2O to aid solubility and aggregation. Soluble samples were analyzed to determine behavior in apolar conditions.

[7] = previous fluorescence quenching experiments, concentrations over 20 mM; cited from earlier work

SMILES	CMC [1] [mM]	CMC, DOSY (Diffusion Coefficients) [1] [mM]	CMC, Surface Tens. [2] [mM]	a0 [Lit.] (headgroup area) [3] [Å^2]	CMC, Surface Tens. (lit) [4] [mM]	radius of "large" aggregates ([5]; samples containing precipitate) [Å]	radius of "small" aggregates ([5]; samples containing precipitate) [Å]	solubility / precipitation [6]	Nagg average (aggregation number) [7]	Nagg (aggregation number) ([5]; at 5 mM)
CCCCCCCCCCOC1O[C@H](CO)[C@@H](O[C@@H]2O[C@H](CO)[C@@H](O)[C@H](O)[C@H]2O)[C@H](O)[C@H]1O (some centres unmarked) [Decyl Cellobioside]	1.8 ± 0.3	2.2 ± 0.7	1.8 ± 0.2	50						
CCCCCCCCCCO[C@@H]1O[C@H](CO)[C@@H](O)[C@H](O)[C@H]1O [Decyl Glucoside]	1.9 ± 0.9	2.1 ± 0.7		42	2.2	90	40			
CCCCCCCCCCOC1O[C@H](CO[C@H]2O[C@H](CO)[C@H](O)[C@H](O)[C@H]2O)[C@@H](O)[C@H](O)[C@H]1O (some centres unmarked) [Decyl Melibioside]	3.9 ± 0.1	3.9 ± 0.1	3.3 ± 0.2	68						
CCCCCCCCCCCCOC1O[C@H](CO)[C@@H](O[C@@H]2O[C@H](CO)[C@@H](O)[C@H](O)[C@H]2O)[C@H](O)[C@H]1O (some centres unmarked) [Dodecyl Cellobioside]		0.29 ± 0.4	0.18 ± 0.01	49						
CCCCCCCCCCCCO[C@@H]1O[C@H](CO)[C@@H](O)[C@H](O)[C@H]1O [Dodecyl Glucoside]				34				remained insoluble		
CCCCCCCCCCCCOC1O[C@H](CO[C@H]2O[C@H](CO)[C@H](O)[C@H](O)[C@H]2O)[C@@H](O)[C@H](O)[C@H]1O (some centres unmarked) [Dodecyl Melibioside]	0.3 ± 0.00	0.31 ± 0.005	0.30 ± 0.02	51					65	above 300
CCCCCCCCOC1O[C@H](CO)[C@@H](O[C@@H]2O[C@H](CO)[C@@H](O)[C@H](O)[C@H]2O)[C@H](O)[C@H]1O (some centres unmarked) [Octyl Cellobioside]	19.7 ± 2.2	21 ± 2	19 ± 3	50						
CCCCCCCCO[C@@H]1O[C@H](CO)[C@@H](O)[C@H](O)[C@H]1O [Octyl Glucoside]	22.5 ± 2.4	20 ± 3		42	20					
CCCCCCCCOC1O[C@H](CO[C@H]2O[C@H](CO)[C@H](O)[C@H](O)[C@H]2O)[C@@H](O)[C@H](O)[C@H]1O (some centres unmarked) [Octyl Melibioside]	39.9 ± 5.2	40 ± 5	44 ± 5	73						
CCCCCCCCCCCCOS(=O)(=O)[O-].[Na+] [SDS, reference compound]	8.5 ± 1.7	8.4 ± 2		61	8.2					
